# Experimental data: patent US5085989A, “Method and reagent for quantitative analysis of 3-oxo-5β-steroid” (Daiichi Pure Chemicals Co., Ltd., priority 1986, dated 1992)
# Read-outs that look alike come from different tables or passages of the source.
# Experiment: Dehydrochoric acid level in serum after intravenous administration (loading test)
# Type: in vivo, human (liver cirrhosis patient and healthy subject)
# Conditions: human, 1000 mg, 1g intravenously; for AUC: read-out: area under concentration curve of the compound in blood (AUC) (converted); for k el: read-out: elimination constant (Kel) (converted)
# Procedure: A liver cirrhosis patient and a healthy subject were each intravenously given 1g of dehydrochoric acid. The changes of the dehydrochoric acid level in serum after the administration were determined according to the same procedure as in Example 1 and using the reagent of Example 1. The results are shown in the appended FIG. 1. The elimination constant (keλ), the half-life period (T 1/2) and the area under concentration curve of the compound in blood (AUC) are given in Table 3.
compound,measurement,setting,value
"C[C@H](CCC(=O)O)[C@H]1CC[C@H]2[C@@H]3C(=O)C[C@@H]4CC(=O)CC[C@]4(C)[C@H]3CC(=O)[C@]12C [Dehydrochoric Acid, dehydrochoric acid]",AUC,healthy subject,45400 ng·h/mL
same,k el,healthy subject,0.00118 s⁻¹
same,AUC,liver cirrhosis patient,23300 ng·h/mL
same,k el,liver cirrhosis patient,0.00262 s⁻¹
